From article PMC10385824, “Antiproliferative and Tubulin-Destabilising Effects of 3-(Prop-1-en-2-yl)azetidin-2-Ones and Related Compounds in MCF-7 and MDA-MB-231 Breast Cancer Cells” (Pharmaceuticals, 2023)
Read-outs that look alike come from different tables or passages of the source.

Assays:
M14 = experiment: NCI-60 SRB screen, melanoma; assay type: cell-based, human; details: M14, 48 h; for GI50: Homo sapiens, five dose 0.01–100 µM, read-out: GI50
HOP-62 = experiment: NCI-60 SRB screen, non-small cell lung cancer; assay type: cell-based, human; details: HOP-62, 48 h; for GI50: Homo sapiens, five dose 0.01–100 µM, read-out: GI50
SN12C = experiment: NCI-60 SRB screen, renal cancer; assay type: cell-based, human; details: 48 h; for GI50: Homo sapiens, five dose 0.01–100 µM, read-out: GI50
SW-620 = experiment: NCI-60 SRB screen, colon cancer; assay type: cell-based, human; details: SW-620, 48 h; for GI50: Homo sapiens, five dose 0.01–100 µM, read-out: GI50
SK-OV-3 = experiment: NCI-60 SRB screen, ovarian cancer; assay type: cell-based, human; details: SK-OV-3, 48 h; for GI50: Homo sapiens, five dose 0.01–100 µM, read-out: GI50
HCT-2998 = experiment: NCI-60 SRB screen, colon cancer; assay type: cell-based, human; details: 48 h; for GI50: Homo sapiens, HCT-2998, five dose 0.01–100 µM, read-out: GI50
HL-60(TB) = experiment: NCI-60 SRB screen, leukemia; assay type: cell-based, human; details: for GI50: Homo sapiens
MDA-MB-435 = experiment: NCI-60 SRB screen, melanoma; assay type: cell-based, human; details: MDA-MB-435, 48 h; for GI50: Homo sapiens, five dose 0.01–100 µM, read-out: GI50
NCI-H552 = experiment: NCI-60 SRB screen, non-small cell lung cancer; assay type: cell-based, human; details: 48 h; for GI50: Homo sapiens, NCI-H552, five dose 0.01–100 µM, read-out: GI50
PC-3 = experiment: NCI-60 SRB screen, prostate cancer; assay type: cell-based, human; details: PC-3, 48 h; for GI50: Homo sapiens, five dose 0.01–100 µM, read-out: GI50
BT-549 = experiment: NCI-60 SRB screen, breast cancer; assay type: cell-based, human; details: BT-549, 48 h; for GI50: Homo sapiens, five dose 0.01–100 µM, read-out: GI50
OVCAR-5 = experiment: NCI-60 SRB screen, ovarian cancer; assay type: cell-based, human; details: OVCAR-5, 48 h; for GI50: Homo sapiens, five dose 0.01–100 µM, read-out: GI50
SK-MEL-5 = experiment: NCI-60 SRB screen, melanoma; assay type: cell-based, human; details: SK-MEL-5, 48 h; for GI50: Homo sapiens, five dose 0.01–100 µM, read-out: GI50
[1] = tested on: MDA-MB-231 human breast cancer cells; experiment: Alamar Blue cell viability (antiproliferative) assay; assay type: cell-based; details: read-out: IC50
HCT-15 = experiment: NCI-60 SRB screen, colon cancer; assay type: cell-based, human; details: HCT-15, 48 h; for GI50: Homo sapiens, five dose 0.01–100 µM, read-out: GI50
HOP-92 = experiment: NCI-60 SRB screen, non-small cell lung cancer; assay type: cell-based, human; details: HOP-92, 48 h; for GI50: Homo sapiens, five dose 0.01–100 µM, read-out: GI50
KM12 = experiment: NCI-60 SRB screen, colon cancer; assay type: cell-based, human; details: KM12, 48 h; for GI50: Homo sapiens, five dose 0.01–100 µM, read-out: GI50
T-47D = experiment: NCI-60 SRB screen, breast cancer; assay type: cell-based, human; details: T-47D, 48 h; for GI50: Homo sapiens, T47D, five dose 0.01–100 µM, read-out: GI50
LOX IMVI = experiment: NCI-60 SRB screen, melanoma; assay type: cell-based, human; details: 48 h; for GI50: Homo sapiens, five dose 0.01–100 µM, read-out: GI50
786-0 = experiment: NCI-60 SRB screen, renal cancer; assay type: cell-based, human; details: 786-0, 48 h; for GI50: Homo sapiens, five dose 0.01–100 µM, read-out: GI50
HS 578T = experiment: NCI-60 SRB screen, breast cancer; assay type: cell-based; details: Homo sapiens; HS 578T; five dose 0.01–100 µM, 48 h; read-out: GI50
HT29 = experiment: NCI-60 SRB screen, colon cancer; assay type: cell-based, human; details: HT29, 48 h; for GI50: Homo sapiens, HT-29, five dose 0.01–100 µM, read-out: GI50
NCI-H23 = experiment: NCI-60 SRB screen, non-small cell lung cancer; assay type: cell-based, human; details: NCI-H23, 48 h; for GI50: Homo sapiens, five dose 0.01–100 µM, read-out: GI50
SNB-19 = experiment: NCI-60 SRB screen, CNS cancer; assay type: cell-based, human; details: SNB-19, 48 h; for GI50: Homo sapiens, five dose 0.01–100 µM, read-out: GI50
COLO 205 = experiment: NCI-60 SRB screen, colon cancer; assay type: cell-based, human; details: COLO 205, 48 h; for GI50: Homo sapiens, five dose 0.01–100 µM, read-out: GI50
MDA-MB-231/ATCC = experiment: NCI-60 SRB screen, breast cancer; assay type: cell-based, human; details: 48 h; for GI50: five dose 0.01–100 µM, read-out: GI50
[2] = tested on: MCF-7 human breast cancer cells; experiment: cells
SF539 = experiment: NCI-60 SRB screen, CNS cancer; assay type: cell-based, human; details: SF-539, 48 h
DU-145 = experiment: NCI-60 SRB screen, prostate cancer; assay type: cell-based, human; details: DU-145, 48 h; for GI50: Homo sapiens, five dose 0.01–100 µM, read-out: GI50
NCI-H460 = experiment: NCI-60 SRB screen, non-small cell lung cancer; assay type: cell-based, human; details: NCI-H460, 48 h; for GI50: Homo sapiens, five dose 0.01–100 µM, read-out: GI50
EKVX = experiment: NCI-60 SRB screen, non-small cell lung cancer; assay type: cell-based, human; details: one dose 10 µM, 48 h
SR = experiment: NCI-60 SRB screen, leukemia; assay type: cell-based, human; details: 48 h; for GI50: Homo sapiens, five dose 0.01–100 µM, read-out: GI50
NCI-H226 = experiment: NCI-60 SRB screen, non-small cell lung cancer; assay type: cell-based; details: Homo sapiens; NCI-H226; five dose 0.01–100 µM, 48 h; read-out: GI50
[3] = HL-60(TB), five dose 0.01–100 µM, 48 h
[4] = MCF7, 72 h, read-out: cell viability

In the case of C=C(C)C1C(=O)N(c2cc(OC)c(OC)c(OC)c2)C1c1ccc(OC)c(O)c1 (stereo not drawn) [9q, 4-(3-Hydroxy-4-methoxyphenyl)-1-(3,4,5-trimethoxyphenyl)-3-(prop-1-en-2-yl)azetidin-2-one], the GI50 (M14) is reported as 17.3 nM, the “% Growth” value (M14; one dose 10 µM) is reported as 3.41% and the “% Growth” value (HOP-62; one dose 10 µM) is reported as 22.22%. For the same compound, the GI50 (HOP-62) was 52.1 nM, the GI50 (SN12C) was 37 nM and the “% Growth” value (SN12C; one dose 10 µM) was 31.39%. For the same compound, the GI50 (SW-620) was 33.4 nM, the “% Growth” value (SW-620; one dose 10 µM) was 17.89% and the GI50 (SK-OV-3) was 30.4 nM. The “% Growth” value (SK-OV-3; one dose 10 µM) was 8.15%, the “% Growth” value (HCT-2998; HCC-2998, one dose 10 µM) was -6.59% and the GI50 (HCT-2998) was 30.1 nM. For the same compound, the “% Growth” value (HL-60(TB); HL-60(TB), one dose 10 µM, 48 h) was -51.24%, the GI50 (HL-60(TB); [3]) was 21.1 nM and the GI50 (HL-60(TB); HL-60, NCI screen) was less than 34 nM. The GI50 (MDA-MB-435) was less than 10 nM, the “% Growth” value (MDA-MB-435; one dose 10 µM) was -13.45% and the GI50 (NCI-H552) was less than 10 nM. For the same compound, the “% Growth” value (NCI-H552; NCI-H522, one dose 10 µM) was -43.45%, the GI50 (PC-3) was 20.1 nM and the “% Growth” value (PC-3; one dose 10 µM) was 27.31%. The “% Growth” value (BT-549; one dose 10 µM) was -9.94%, the GI50 (BT-549) was 11 nM and the GI50 (OVCAR-5) was 49.4 nM. For the same compound, the “% Growth” value (OVCAR-5; one dose 10 µM) was 44.67%, the GI50 (SK-MEL-5) was 12.4 nM and the “% Growth” value (SK-MEL-5; one dose 10 µM) was -0.90%. The IC50 [1] was 23.9 nM, the “% Growth” value (HCT-15; one dose 10 µM) was 15.23% and the GI50 (HCT-15) was 29.9 nM. The “% Growth” value (HOP-92; one dose 10 µM) was 16.15%, the GI50 (HOP-92) was 15.4 nM and the GI50 (KM12) was less than 10 nM. For the same compound, the “% Growth” value (KM12; one dose 10 µM) was -24.63%, the GI50 (T-47D) was greater than 100000 nM and the “% Growth” value (T-47D; one dose 10 µM) was 67.35%. The GI50 (LOX IMVI) was less than 10 nM, the “% Growth” value (LOX IMVI; one dose 10 µM) was 30.61% and the “% Growth” value (786-0; one dose 10 µM) was 4.28%. For the same compound, the GI50 (786-0) was 26.8 nM, the GI50 (HS 578T) was 10.6 nM and the “% Growth” value (HT29; one dose 10 µM) was 2.66%. For the same compound, the GI50 (HT29) was 187 nM, the GI50 (NCI-H23) was 23.7 nM and the “% Growth” value (NCI-H23; one dose 10 µM) was 14.46%. For the same compound, the GI50 (SNB-19) was 58.8 nM, the “% Growth” value (SNB-19; one dose 10 µM) was 37.93% and the “% Growth” value (COLO 205; one dose 10 µM) was -27.00%. It also gave a GI50 (COLO 205) of 284 nM, a GI50 (MDA-MB-231/ATCC; Homo sapiens, MDA-MB-231/ATCC) of 16.8 nM and an IC50 (MDA-MB-231/ATCC; Homo sapiens, MDA-MB-231, obtained from NCI, five concentrations 0.01–100 μM, read-out: Antiproliferative Activity IC50) of 23.9 nM. For the same compound, the “% Growth” value (MDA-MB-231/ATCC; MDA-MB-231/ATCC, one dose 10 µM) was -6.67%, the IC50 ([2]; MCF7) was 10 nM and the IC50 ([2]; MCF7, 72 h) was 12 nM. For the same compound, the viability at 0.1 µM [2, 4] was 22%, the viability at 1 µM [2, 4] was 21% and the viability at 10 µM [2, 4] was 11%. For the same compound, the “% Growth” value (SF539; one dose 10 µM) was -8.30%, the “% Growth” value (DU-145; one dose 10 µM) was -52.00% and the GI50 (DU-145) was 21.5 nM. For the same compound, the GI50 (NCI-H460) was 30 nM, the “% Growth” value (NCI-H460; one dose 10 µM) was 3.52% and the “% Growth” value (EKVX) was 68.88%. For the same compound, the GI50 (SR) was less than 10 nM and the “% Growth” value (SR; one dose 10 µM) was -2.84%.

Compound COc1ccc(C2C(C(C)C)C(=O)N2c2cc(OC)c(OC)c(OC)c2)cc1OP(=O)(O)O (stereo not drawn) [15b, 5-(3-Isopropyl-1-(3,4,5-trimethoxyphenyl)-4-oxoazetidin-2-yl)-2-methoxyphenyl dihydrogen phosphate] has a GI50 (M14) of 291 nM, a GI50 (HOP-62) of 374 nM and a GI50 (SN12C) of 463 nM. It also gave a GI50 (SW-620) of 373 nM, a GI50 (SK-OV-3) of 416 nM and a GI50 (HCT-2998) of 452 nM. It also gave a GI50 (HL-60(TB); [3]) of 305 nM, a GI50 (MDA-MB-435) of 73.8 nM and a GI50 (NCI-H552) of 237 nM. For the same compound, the GI50 (PC-3) was 278 nM, the GI50 (BT-549) was 411 nM and the GI50 (OVCAR-5) was 2340 nM. The GI50 (SK-MEL-5) was 164 nM, the GI50 (HCT-15) was 298 nM and the GI50 (HOP-92) was 11200 nM. The GI50 (NCI-H226) was greater than 100000 nM, the GI50 (KM12) was 180 nM and the GI50 (T-47D) was greater than 100000 nM. For the same compound, the GI50 (LOX IMVI) was 328 nM, the GI50 (786-0) was 439 nM and the GI50 (HS 578T) was 173 nM. It also gave a GI50 (HT29) of 3470 nM, a GI50 (NCI-H23) of 368 nM and a GI50 (SNB-19) of 477 nM. It also gave a GI50 (COLO 205) of 1230 nM, a GI50 (MDA-MB-231/ATCC; Homo sapiens, MDA-MB-231/ATCC) of 215 nM and an IC50 ([2]; MCF7, 72 h, read-out: Antiproliferative Activity IC50) of 145000 ± 7760 nM. For the same compound, the GI50 (SF539; Homo sapiens, SF539, five dose 0.01–100 µM, read-out: GI50) was 132 nM, the GI50 (DU-145) was 368 nM and the GI50 (NCI-H460) was 325 nM. It also gave a GI50 (SR) of 324 nM.
